Experimental data from patent US10583096B2, “Use of cannabinoids in the treatment of epilepsy” (GW Research Limited, priority 2016, dated 2020).

Tests used:
[1] = test system: subjects with SWS brain involvement and refractory epilepsy; assay: Expanded access compassionate use program of CBD in Sturge Weber syndrome: seizure frequency and quality of life; type: in vivo, human; conditions: for Week 14 (number of seizures): CBD target dose 15-25 mg/kg/day; for Decrease in seizure frequency (%): week 14 versus baseline
Protocol: “Percentage decrease in seizure frequency” is defined as the number of seizures at week 14 minus the number of seizures at baseline divided by the number of seizures at baseline multiplied by 100.
Four subjects with SWS brain involvement and refractory epilepsy were enrolled in an expanded access compassionate use program for CBD. These subjects were treated with a highly purified extract of cannabidiol (CBD) obtained from a cannabis plant. Frequency of seizures was recorded at each visit, as were reported quality of life changes, including mood, behaviour, and cognitive function.
Data were compared in the 56-day pre-treatment period, the 56-day period after starting maintenance dose (Week 14), and at most recent visit.
The participants in the study were taking at the time of entry into the study between one and four concomitant AEDs.
Patient 1 was taking leviteracetam alone. Patient 2 was taking leviteracetam, valproate, felbamate and clobazam. Patient 3 was taking valproate and topiramate. Patient 4 was taking oxycarbamazepine and lacosamide.
CBD was administered at a target dose of 15-25 mg/kg/day.
All patients entered a baseline period of 14 weeks when parents/caregivers kept prospective seizure diaries, noting all countable seizure types.
Laboratory testing for hematologic, liver, kidney function and concomitant AED levels was performed at baseline, and after every 4 weeks of CBD therapy.

mice = conditions: after administration of pro-convulsant drugs or an electric current; cited from earlier work
[2] = test system: adult patients with secondary generalized epilepsy; conditions: of eight adult patients with secondary generalized epilepsy; cited from earlier work
adult patients = conditions: 200 mg/day of pure CBD, four adult patients; cited from earlier work
[3] = test system: institutionalized adult patients; conditions: 200 mg/day of pure CBD, twelve institutionalized adult patients, open label; cited from earlier work
Dravet syndrome = conditions: treatment of Dravet syndrome, announced March 2016; cited from earlier work
[4] = test system: multiple species and models; conditions: previous studies in animals; cited from earlier work
[5] = in vivo; cited from earlier work

C=C(C)[C@@H]1CCC(C)=C[C@H]1c1c(O)cc(CCCCC)cc1O [CBD, Cannabidiol]
Week 14 (number of seizures) ([1]; Patient 1, concomitant leviteracetam alone, baseline 67 seizures): 60 number of seizures
Decrease in seizure frequency (%) ([1]; Patient 1, concomitant leviteracetam alone): 10%
Week 14 (number of seizures) ([1]; Patient 2, concomitant leviteracetam, valproate, felbamate and clobazam, baseline 6 seizures): 1 number of seizures
Decrease in seizure frequency (%) ([1]; Patient 2, concomitant leviteracetam, valproate, felbamate and clobazam): 83%
Week 14 (number of seizures) ([1]; Patient 3, concomitant valproate and topiramate, baseline 10 seizures): 1 number of seizures
Decrease in seizure frequency (%) ([1]; Patient 3, concomitant valproate and topiramate): 90%
Week 14 (number of seizures) ([1]; Patient 4, concomitant oxycarbamazepine and lacosamide, baseline 6 seizures): 4 number of seizures
Decrease in seizure frequency (%) ([1]; Patient 4, concomitant oxycarbamazepine and lacosamide): 33%
effectiveness in the treatment of SWS ([1]; conclusion from the four patients): effective
reported quality of life ([1]; patient 1): remained unchanged
reported quality of life ([1]; three of the four patients (patients 2, 3 and 4)): improved quality of life
cognitive function ([1]; three subjects (patients 2, 3 and 4)): improvements in cognitive function
share of patients who benefited from a reduction in the number of seizures ([1]; treatment-resistant SWS patients, four subjects): three quarters
mood and behaviour ([1]; two subjects (patient 2 and 3)): improvements in mood and behaviour
prevention of seizures (mice): able to prevent seizures
number of patients with a marked reduction of seizures [2]: 4
patients who became seizure free (adult patients): two of the four patients
seizure frequency in the remainder of the patients (adult patients): unchanged
control of seizures [3]: ineffective
outcome of the Phase 3 study (Dravet syndrome): positive results
anticonvulsant efficacy [4]: anticonvulsant efficacy in multiple species and models

CCCCCc1cc(O)c2c(c1)OC(C)(C)[C@@H]1CCC(C)=C[C@@H]21 [THC, Tetrahydrocannabinol]
effect on convulsions [5]: pro-convulsant
